Consider 15 compounds from ChEMBL document CHEMBL1151578, “Benzopyran-4-carboxamide K+ channel openers” (Bioorg Med Chem Lett, 1993).

For test [1], the species on record is Rattus norvegicus. In words: Relaxation of rat aorta smooth muscle precontracted with 30 mM KCl (Negative logarithm of molar concentration required). It is filed as functional, organism-based. As to conditions: Muscle tissue.
The species entered for test [2] is Rattus norvegicus. In words: Relaxation of rat aorta smooth muscle. It is filed as functional, Muscle tissue.

In general, EC50 refers to the concentration at which the effect is half-maximal. High values mean a need for much substance, low ones an effect from little substance. The compound `CC(C)NC(=O)C1=CC(C)(C)Oc2ccc([N+](=O)[O-])cc21` showed an EC50 in the test filed under Rattus norvegicus [1] of 0.186 µM. Further, the Intrinsic activity in the test filed under Rattus norvegicus [2] is 77.6%.

As to `CC1(C)C=C(C(=O)NCCO)c2cc([N+](=O)[O-])ccc2O1`, a half-maximal response in the test filed under Rattus norvegicus [1] (EC50) required 0.182 µM. The Intrinsic activity in the test filed under Rattus norvegicus [2] came to 71.8%.

Take `CC1(C)C=C(C(=O)NCCF)c2cc([N+](=O)[O-])ccc2O1`: a half-maximal response in the test listed under Rattus norvegicus [1] (EC50) required 0.0204 µM. In addition, in the test filed under Rattus norvegicus [2], the Intrinsic activity amounted to 81.6%.

Take `C#CCNC(=O)C1=CC(C)(C)Oc2ccc([N+](=O)[O-])cc21`: in the test listed under Rattus norvegicus [1], the response was half-maximal at 0.00794 µM (EC50). Moreover, the Intrinsic activity in the test filed under Rattus norvegicus [2] was determined as 80.2%.

Regarding `CC1(C)C=C(C(=O)NCCC#N)c2cc([N+](=O)[O-])ccc2O1`, the Intrinsic activity in the test listed under Rattus norvegicus [2] turned out to be 73.1%.

In turn, `CCNC(=O)C1=CC(C)(C)Oc2ccc([N+](=O)[O-])cc21` had an EC50 in the test listed under Rattus norvegicus [1] of 0.00457 µM. In the test filed under Rattus norvegicus [2], this compound came in with an Intrinsic activity of 80.5%.

As to `CCCNC(=O)C1=CC(C)(C)Oc2ccc([N+](=O)[O-])cc21`, in the test listed under Rattus norvegicus [1], the EC50 was 0.00575 µM. In the test filed under Rattus norvegicus [2], this compound gave an Intrinsic activity of 74.1%.

For `CNC(=O)C1=CC(C)(C)Oc2ccc([N+](=O)[O-])cc21`, the Intrinsic activity in the test filed under Rattus norvegicus [2] worked out at 61%.

For the compound `CC1(C)C=C(C(=O)NCC2CC2)c2cc([N+](=O)[O-])ccc2O1`, a half-maximal response in the test filed under Rattus norvegicus [1] (EC50) required 0.00661 µM. In the test listed under Rattus norvegicus [2], the Intrinsic activity was 89.3%.

Consider `CCCCNC(=O)C1=CC(C)(C)Oc2ccc([N+](=O)[O-])cc21`, for which, in the test filed under Rattus norvegicus [1], the EC50 is 0.0219 µM. This compound came in with an Intrinsic activity in the test filed under Rattus norvegicus [2] of 83.2%.

Take `CNC(=O)C1=CC(C)(C)Oc2ccc(C#N)cc21`: the Intrinsic activity in the test filed under Rattus norvegicus [2] is 66.6%.

With `CC1(C)C=C(C(N)=O)c2cc([N+](=O)[O-])ccc2O1`, a half-maximal response in the test listed under Rattus norvegicus [1] (EC50) required 0.363 µM. The compound further came in with an Intrinsic activity in the test listed under Rattus norvegicus [2] of 79.8%.

Compound `CC1(C)C=C(C(=O)NC2CC2)c2cc([N+](=O)[O-])ccc2O1` showed an EC50 in the test filed under Rattus norvegicus [1] of 0.0324 µM. The compound also gave an Intrinsic activity in the test filed under Rattus norvegicus [2] of 78%.

Regarding `CC1(C)Oc2ccc(C#N)cc2[C@H](N2CCCC2=O)[C@H]1O` (single isomer, unassigned) [(-)-CROMAKALIM], the EC50 in the test listed under Rattus norvegicus [1] is 0.17 µM. In the test filed under Rattus norvegicus [2], the Intrinsic activity is 74.7%.

As to `CC(N/C(=N\C#N)Nc1ccncc1)C(C)(C)C` (stereo unspecified) [PINACIDIL ANHYDROUS], the Intrinsic activity in the test filed under Rattus norvegicus [2] is given as 91.9%.
